Measured values taken from ChEMBL document CHEMBL3779887, “Robenidine Analogues as Gram-Positive Antibacterial Agents” (J Med Chem, 2016).
In brackets after ≈: the same amount, converted by molar mass. Activity calls are given as the source filed them. The calls are words filed in the database; no cut-off is given here.

Columns and labels:
Staphylococcus aureus [1] = assay: Antibacterial activity against methicillin-sensitive Staphylococcus aureus ATCC 25923 after 20 to 24 hrs; type: functional
Staphylococcus aureus [2] = assay: Bactericidal activity against Methicillin-sensitive Staphylococcus aureus ATCC 29213 assessed as log reduction in bacterial cell number at 8 times MIC after 24 hrs by time-kill curve analysis; type: functional, organism-based
Staphylococcus aureus [3] = assay: Bactericidal activity against methicillin-sensitive Staphylococcus aureus ATCC 29213 assessed as log reduction in bacterial cell number at MIC after 8 hrs by time-kill curve analysis; type: functional
[4] = Solubility of the compound at pH 6.5; type: physicochemical; details: buffer
Staphylococcus aureus [5] = assay: Antibacterial activity against methicillin-sensitive Staphylococcus aureus ATCC 29213 after 20 to 24 hrs in presence of 50% heat inactivated bovine serum
Staphylococcus aureus [6] = assay: Bactericidal activity against methicillin-sensitive Staphylococcus aureus ATCC 29213 after 24 and 48 hrs; type: functional
Staphylococcus aureus [7] = assay: Bactericidal activity against Methicillin-sensitive Staphylococcus aureus ATCC 29213 assessed as log reduction in bacterial cell number at 4 times MIC after 24 hrs by time kill curve analysis; type: functional, organism-based
Enterococcus = assay: Antibacterial activity against vancomycin-resistant Enterococcus after 20 to 24 hrs; type: functional
[8] = Lipophilicity, logD of the compound at pH 3; type: physicochemical; details: buffer
Staphylococcus aureus [9] = assay: Antibacterial activity against Staphylococcus aureus ATCC 29213 after 20 to 24 hrs in presence of 2% heat inactivated bovine serum; type: functional
Staphylococcus aureus [10] = assay: Ratio of MBC for methicillin-sensitive Staphylococcus aureus ATCC 29213 to MIC90 for methicillin-sensitive Staphylococcus aureus ATCC 29213; type: functional
Staphylococcus aureus [11] = assay: Bactericidal activity against Methicillin-sensitive Staphylococcus aureus ATCC 29213 assessed as log reduction in bacterial cell number at 2 times MIC after 24 hrs by time kill curve analysis; type: functional, organism-based
Escherichia coli [12] = assay: Antibacterial activity against Escherichia coli ATCC 25922 after 20 to 24 hrs in presence of polymyxin B nonapeptide; type: functional
Staphylococcus aureus [13] = assay: Bactericidal activity against […] Staphylococcus aureus clinical isolate USA300 assessed as log reduction in bacterial cell number at 2 times MIC after 24 hrs by time-kill curve analysis; type: functional, organism-based
Staphylococcus aureus [14] = assay: Antibacterial activity against methicillin-sensitive Staphylococcus aureus ATCC 49775 after 20 to 24 hrs in presence of 50% heat inactivated bovine serum; type: functional
[15] = Intrinsic clearance in mouse liver microsomes assessed per mg of protein; type: ADME; details: read-out: CLH
Staphylococcus aureus [16] = assay: Bactericidal activity against […] Staphylococcus aureus clinical isolate USA300 assessed as log reduction in bacterial cell number at 8 times MIC after 8 hrs by time-kill curve analysis; type: functional
Staphylococcus aureus [17] = assay: Antibacterial activity against methicillin-sensitive Staphylococcus aureus ATCC 29213 after 20 to 24 hrs; type: functional
Staphylococcus aureus [18] = assay: Bactericidal activity against methicillin-sensitive Staphylococcus aureus ATCC 29213 assessed as log reduction in bacterial cell number at 2 times MIC after 8 hrs by time-kill curve analysis; type: functional
[19] = Selectivity index, ratio of GI50 for human HepG2 cells to MIC50 for methicillin-sensitive Staphylococcus aureus clinical isolate; type: functional
[20] = Lipophilicity, logD of the compound at pH 7.4; type: physicochemical; details: buffer
Staphylococcus aureus [21] = assay: Antibacterial activity against methicillin-sensitive Staphylococcus aureus ATCC 6538 after 20 to 24 hrs; type: functional
[22] = Cytotoxicity against human HepG2 cells after 24 hrs by WST-1 based colorimetric assay; type: cell-based
Staphylococcus aureus [23] = assay: Bactericidal activity against methicillin-sensitive Staphylococcus aureus ATCC 6538 after 24 and 48 hrs; type: functional
[24] = Intrinsic clearance in human liver microsomes assessed per mg of protein; type: ADME; details: read-out: CLH
Staphylococcus aureus [25] = assay: Antibacterial activity against methicillin-sensitive Staphylococcus aureus ATCC 49775 after 20 to 24 hrs; type: functional
[26] = Half life of compound in human liver microsomes; type: ADME
Staphylococcus aureus [27] = assay: Bactericidal activity against […] Staphylococcus aureus clinical isolate USA300 assessed as log reduction in bacterial cell number at MIC after 24 hrs by time-kill curve analysis; type: functional, organism-based
[28] = Toxicity in sheep erythrocytes assessed as hemolysis at 600 uM after 30 mins; type: cell-based, Ovis aries; details: erythrocyte, 0.5 h
Staphylococcus aureus [29] = assay: Bactericidal activity against methicillin-sensitive Staphylococcus aureus clinical isolate USA300 assessed as log reduction in bacterial cell number at MIC after 8 hrs by time-kill curve analysis; type: functional
Staphylococcus aureus [30] = assay: Bactericidal activity against methicillin-sensitive Staphylococcus aureus ATCC 49775 after 24 and 48 hrs; type: functional
Staphylococcus aureus [31] = assay: Bactericidal activity against […] Staphylococcus aureus clinical isolate USA300 assessed as log reduction in bacterial cell number at 2 times MIC after 8 hrs by time-kill curve analysis; type: functional
Escherichia coli [32] = assay: Antibacterial activity against Escherichia coli ATCC 25922 after 20 to 24 hrs; type: functional
[33] = Half life of compound in mouse liver microsomes; type: ADME
Staphylococcus aureus [34] = assay: Antibacterial activity against methicillin-resistant Staphylococcus aureus after 20 to 24 hrs; type: functional
Staphylococcus aureus [35] = assay: Bactericidal activity against methicillin-sensitive Staphylococcus aureus ATCC 25923 after 24 and 48 hrs; type: functional
Pseudomonas aeruginosa [36] = assay: Antibacterial activity against Pseudomonas aeruginosa ATCC 27853 after 20 to 24 hrs in presence of polymyxin B nonapeptide; type: functional
Pseudomonas aeruginosa [37] = assay: Antibacterial activity against Pseudomonas aeruginosa ATCC 27853 after 20 to 24 hrs; type: functional
[38] = Solubility of the compound at pH 2; type: physicochemical; details: buffer
Staphylococcus aureus [39] = assay: Ratio of MBC for methicillin-sensitive Staphylococcus aureus ATCC 49775 to MIC90 for methicillin-sensitive Staphylococcus aureus ATCC 49775; type: functional
Staphylococcus aureus [40] = assay: Antibacterial activity against methicillin-sensitive Staphylococcus aureus ATCC 29213 after 20 to 24 hrs in presence of 50% heat inactivated bovine serum; remark: listed apart in the source
Staphylococcus aureus [41] = assay: Bactericidal activity against methicillin-resistant Staphylococcus aureus clinical isolate after 24 and 48 hrs; type: functional
Staphylococcus aureus [42] = assay: Ratio of MBC for methicillin-sensitive Staphylococcus aureus ATCC 6538 to MIC90 for methicillin-sensitive Staphylococcus aureus ATCC 6538; type: functional
Staphylococcus aureus [43] = assay: Antibacterial activity against methicillin-resistant Staphylococcus aureus clinical isolate after 20 to 24 hrs; type: functional
Staphylococcus aureus [44] = assay: Bactericidal activity against methicillin-sensitive Staphylococcus aureus ATCC 29213 assessed as log reduction in bacterial cell number at 8 times MIC after 8 hrs by time-kill curve analysis; type: functional
Staphylococcus aureus [45] = assay: Bactericidal activity against Methicillin-sensitive Staphylococcus aureus ATCC 29213 assessed as log reduction in bacterial cell number at MIC after 8 hrs by time kill curve analysis
Staphylococcus aureus [46] = assay: Bactericidal activity against […] Staphylococcus aureus clinical isolate USA300 assessed as log reduction in bacterial cell number at 4 times MIC after 8 hrs by time-kill curve analysis; type: functional
[47] = Cytotoxicity against human HEL299 cells after 24 hrs by WST-1 based colorimetric assay; type: cell-based, HEL 299
Staphylococcus aureus [48] = assay: Bactericidal activity against […] Staphylococcus aureus clinical isolate USA300 assessed as log reduction in bacterial cell number at 8 times MIC after 24 hrs by time-kill curve analysis; type: functional, organism-based
[49] = Selectivity index, ratio of GI50 for human HEL299 cells to MIC50 for methicillin-sensitive Staphylococcus aureus clinical isolate; type: functional, HEL 299
Staphylococcus aureus [50] = assay: Antibacterial activity against methicillin-sensitive Staphylococcus aureus ATCC 29213 after 20 to 24 hrs in presence of 50% heat inactivated bovine serum; type: functional
Staphylococcus aureus [51] = assay: Bactericidal activity against […] Staphylococcus aureus clinical isolate USA300 assessed as log reduction in bacterial cell number at 4 times MIC after 24 hrs by time-kill curve analysis; type: functional, organism-based
Staphylococcus aureus [52] = assay: Antibacterial activity against methicillin-sensitive Staphylococcus aureus ATCC 6538 after 20 to 24 hrs in presence of 50% heat inactivated bovine serum; type: functional
[53] = Selectivity index, ratio of GI50 for human HEL299 cells to MIC50 for methicillin-resistant Staphylococcus aureus clinical isolate; type: functional, HEL 299
Staphylococcus aureus [54] = assay: Ratio of MBC for methicillin-sensitive Staphylococcus aureus ATCC 25923 to MIC90 for methicillin-sensitive Staphylococcus aureus ATCC 25923; type: functional
[55] = Selectivity index, ratio of GI50 for human HepG2 cells to MIC50 for methicillin-resistant Staphylococcus aureus clinical isolate; type: functional
Staphylococcus aureus [56] = assay: Bactericidal activity against methicillin-sensitive Staphylococcus aureus ATCC 29213 assessed as log reduction in bacterial cell number at 4 times MIC after 8 hrs by time-kill curve analysis; type: functional

In the case of `CC(C)(C)c1ccc(/C=N/NC(=N)N/N=C/c2ccc(C(C)(C)C)cc2)cc1`, the MIC90 (Staphylococcus aureus [1]) was 4.8 µM (≈ 1.81 µg/mL), the Activity (Staphylococcus aureus [2]) was “inactive” and the Activity (Staphylococcus aureus [3]) was “>=4 log10CFU/ml”. It also gave a solubility [4] of less than 1.6 µg/mL, an MIC90 (Staphylococcus aureus [5]) greater than 250 µM and an MBC (Staphylococcus aureus [6]) of 4.8 µM (≈ 1.81 µg/mL). For the same compound, the Activity (Staphylococcus aureus [7]) was “inactive”, the MIC (Enterococcus) was 29 µM (≈ 10.9 µg/mL) and the logD [8] was 4.9. The MIC90 (Staphylococcus aureus [9]) was 38.6 µM, the Ratio (Staphylococcus aureus [10]) was 1 and the Activity (Staphylococcus aureus [11]) was “inactive”. The MIC90 (Escherichia coli [12]) was greater than 250 µM, the Activity (Staphylococcus aureus [13]) was “inactive” and the MIC90 (Staphylococcus aureus [14]) was greater than 250 µM. The microsomal CLint [15] was 70 µL/min/mg, the Activity (Staphylococcus aureus [16]) was “>=4 log10CFU/ml” and the MIC90 (Staphylococcus aureus [17]) was 4.8 µM (≈ 1.81 µg/mL). For the same compound, the Activity (Staphylococcus aureus [18]) was “>=4 log10CFU/ml”, the “Selectivity Index” value [19] was 2 and the logD [20] was greater than 5.3. The MIC90 (Staphylococcus aureus [21]) was 4.8 µM (≈ 1.81 µg/mL), the GI50 at 24 h [22] was 26.3 µM and the MBC (Staphylococcus aureus [23]) was 4.8 µM (≈ 1.81 µg/mL). For the same compound, the microsomal CLint [24] was 89 µL/min/mg, the MIC90 (Staphylococcus aureus [25]) was 4.8 µM (≈ 1.81 µg/mL) and the half-life [26] was 20 min. For the same compound, the Activity (Staphylococcus aureus [27]) was “inactive”, the Activity [28] was “Non-toxic” and the Activity (Staphylococcus aureus [29]) was “>=4 log10CFU/ml”. For the same compound, the MBC (Staphylococcus aureus [30]) was 4.8 µM (≈ 1.81 µg/mL), the Activity (Staphylococcus aureus [31]) was “>=4 log10CFU/ml” and the MIC (Escherichia coli [32]) was greater than 400 µM. It also gave a half-life [33] of 25 min, an MIC (Staphylococcus aureus [34]) of 24.2 µM (≈ 9.14 µg/mL) and an MBC (Staphylococcus aureus [35]) of 4.8 µM (≈ 1.81 µg/mL). It also gave an MIC90 (Pseudomonas aeruginosa [36]) greater than 250 µM, an MIC (Pseudomonas aeruginosa [37]) greater than 400 µM and a solubility [38] of less than 1.6 µg/mL. The Ratio (Staphylococcus aureus [39]) was 1, the MIC90 (Staphylococcus aureus [40]) was greater than 250 µM and the MBC (Staphylococcus aureus [41]) was 4.8 µM (≈ 1.81 µg/mL). For the same compound, the Ratio (Staphylococcus aureus [42]) was 1, the MIC90 (Staphylococcus aureus [43]) was 4.8 µM (≈ 1.81 µg/mL) and the Activity (Staphylococcus aureus [44]) was “>=4 log10CFU/ml”. For the same compound, the Activity (Staphylococcus aureus [45]) was “inactive”, the Activity (Staphylococcus aureus [46]) was “>=4 log10CFU/ml” and the GI50 at 24 h [47] was 28.8 µM. For the same compound, the Activity (Staphylococcus aureus [48]) was “inactive”, the “Selectivity Index” value [49] was 2 and the MIC90 (Staphylococcus aureus [50]) was greater than 250 µM. For the same compound, the Activity (Staphylococcus aureus [51]) was “inactive”, the MIC90 (Staphylococcus aureus [52]) was greater than 250 µM and the “Selectivity Index” value [53] was 2. For the same compound, the Ratio (Staphylococcus aureus [54]) was 1, the “Selectivity Index” value [55] was 2 and the Activity (Staphylococcus aureus [56]) was “>=4 log10CFU/ml”.
